In patent US20100285053A1, “Immunosuppressive Extract Of Cordyceps Sinensis And Uses Thereof” (Dalhousie University, priority 2006, published 2010):

Legend:
[1] = system: Peritoneal elicited macrophages; experiment: Endotoxin test: Polymyxin B pre-treatment, IL-6 production by macrophages; type: cell-based; details: Polymyxin B 20 μg/ml 30 min, then LPS 10 ηg/ml
Method: To test for LPS contamination, macrophages were pre-treated with Polymyxin B, followed by incubation with ACE. Peritoneal elicited macrophages were pre-incubated with media or LPS inhibitor Polymyxin B (Calbiochem) at 20 μg/ml for 30 min at 37° C. Cells were further incubated with LPS (10 ηg/ml) or ACE (3.4 mg/ml). […] Results are shown as levels of IL-6 production, which were measured using ELISA. Means and standard deviations of triplicate samples are shown. Data are representative of three separate experiments.

[2] = system: Adherent macrophages; experiment: Effect of MAPK inhibitors on IL-6 production by stimulated macrophages; type: cell-based, murine; details: 25 μM inhibitor 30 min pre-incubation, then ACE 3.4 mg/mL 48 hours
Method: Adherent macrophages were pre-incubated with media, vehicle (0.06% DMSO; Sigma), 25 μM ERK inhibitor, (PD98059; Calbiochem), or 25 μM p38 inhibitor (SB203580; Calbiochem) for 30 min at 37° C. before being treated with test agent. The cells were further incubated for 48 hours with ACE (3.4 mg/mL) or Zymosan (0.01%). DMSO was used as a vehicle control. IL-6 production was assayed using ELISA.

Molecule | reduction of LPS activity (IL-6 production) [1] | IL-6 production by ACE treated macrophages in presence of inhibitor [2]
Polymyxin B | ~80% | –
COc1cccc(-c2cc(=O)c3ccccc3o2)c1N [PD98059] | – | marked decreases of IL-6 production
C[S+]([O-])c1ccc(-c2nc(-c3ccncc3)c(-c3ccc(F)cc3)[nH]2)cc1 (stereo not drawn) [SB203580] | – | marked decreases of IL-6 production
